Measurements: publication PMC7846792, “Perception of a divergent family of phytocytokines by the Arabidopsis receptor kinase MIK2” (Nature Communications, 2021)
No end group written: not given here.

Tested on: A. thaliana seedlings
Experiment: Seedling growth inhibition (fresh weight)
Assay type: in vivo, Arabidopsis thaliana
Settings: mock mean = 1
Experimental: Four-day-old seedlings growing on MS plates were transferred individually into separate wells of transparent 48-well tissue culture plates (Greiner Bio-One) containing 500 μL of liquid MS media with/without elicitor addition. The plates were then transferred back to the growth conditions for an additional 10 days before seedlings were blot-dried and weighed.

With GTGPSHSGHGGSS [SCOOP9] the “Seedling fresh weight (Fig3C), relative to mock” value (Col-0, 1 μM, replicate 1) was 0.7762, the “Seedling fresh weight (Fig3C), relative to mock” value (Col-0, 1 μM, replicate 2) was 0.8462 and the “Seedling fresh weight (Fig3C), relative to mock” value (Col-0, 1 μM, replicate 3) was 0.6605. The “Seedling fresh weight (Fig3C), relative to mock” value (Col-0, 1 μM, replicate 4) was 0.7701, the “Seedling fresh weight (Fig3C), relative to mock” value (Col-0, 1 μM, replicate 5) was 0.4809 and the “Seedling fresh weight (Fig3C), relative to mock” value (Col-0, 1 μM, replicate 6) was 0.5418. For the same sequence, the “Seedling fresh weight (Fig3C), relative to mock” value (Col-0, 1 μM, replicate 7) was 0.6179, the “Seedling fresh weight (Fig3C), relative to mock” value (Col-0, 1 μM, replicate 8) was 0.7457 and the “Seedling fresh weight (Fig3C), relative to mock” value (Col-0, 1 μM, replicate 9) was 0.8066. The “Seedling fresh weight (Fig3C), relative to mock” value (Col-0, 1 μM, replicate 10) was 0.831, the “Seedling fresh weight (Fig3C), relative to mock” value (Col-0, 1 μM, replicate 11) was 0.7549 and the “Seedling fresh weight (Fig3C), relative to mock” value (Col-0, 1 μM, replicate 12) was 0.7275. The “Seedling fresh weight (Fig3C), relative to mock” value (Col-0, 10 μM, replicate 1) was 0.06065, the “Seedling fresh weight (Fig3C), relative to mock” value (Col-0, 10 μM, replicate 2) was 0.1274 and the “Seedling fresh weight (Fig3C), relative to mock” value (Col-0, 10 μM, replicate 3) was 0.1304. For the same sequence, the “Seedling fresh weight (Fig3C), relative to mock” value (Col-0, 10 μM, replicate 4) was 0.1061, the “Seedling fresh weight (Fig3C), relative to mock” value (Col-0, 10 μM, replicate 5) was 0.1395 and the “Seedling fresh weight (Fig3C), relative to mock” value (Col-0, 10 μM, replicate 6) was 0.08795. For the same sequence, the “Seedling fresh weight (Fig3C), relative to mock” value (Col-0, 10 μM, replicate 7) was 0.1759, the “Seedling fresh weight (Fig3C), relative to mock” value (Col-0, 10 μM, replicate 8) was 0.2365 and the “Seedling fresh weight (Fig3C), relative to mock” value (Col-0, 10 μM, replicate 9) was 0.1395. For the same sequence, the “Seedling fresh weight (Fig3C), relative to mock” value (Col-0, 10 μM, replicate 10) was 0.2032, the “Seedling fresh weight (Fig3C), relative to mock” value (Col-0, 10 μM, replicate 11) was 0.1789 and the “Seedling fresh weight (Fig3C), relative to mock” value (Col-0, 10 μM, replicate 12) was 0.1425. The “Seedling fresh weight (Fig3C), relative to mock” value (mik2-1, 1 μM, replicate 1) was 0.8374, the “Seedling fresh weight (Fig3C), relative to mock” value (mik2-1, 1 μM, replicate 2) was 1.059 and the “Seedling fresh weight (Fig3C), relative to mock” value (mik2-1, 1 μM, replicate 3) was 0.8173. For the same sequence, the “Seedling fresh weight (Fig3C), relative to mock” value (mik2-1, 1 μM, replicate 4) was 0.935, the “Seedling fresh weight (Fig3C), relative to mock” value (mik2-1, 1 μM, replicate 5) was 0.9081 and the “Seedling fresh weight (Fig3C), relative to mock” value (mik2-1, 1 μM, replicate 6) was 0.9484. For the same sequence, the “Seedling fresh weight (Fig3C), relative to mock” value (mik2-1, 1 μM, replicate 7) was 1.0157, the “Seedling fresh weight (Fig3C), relative to mock” value (mik2-1, 1 μM, replicate 8) was 1.056 and the “Seedling fresh weight (Fig3C), relative to mock” value (mik2-1, 1 μM, replicate 9) was 0.972. The “Seedling fresh weight (Fig3C), relative to mock” value (mik2-1, 1 μM, replicate 10) was 1.002, the “Seedling fresh weight (Fig3C), relative to mock” value (mik2-1, 1 μM, replicate 11) was 1.066 and the “Seedling fresh weight (Fig3C), relative to mock” value (mik2-1, 1 μM, replicate 12) was 1.039. For the same sequence, the “Seedling fresh weight (Fig3C), relative to mock” value (mik2-1, 10 μM, replicate 1) was 0.8757, the “Seedling fresh weight (Fig3C), relative to mock” value (mik2-1, 10 μM, replicate 2) was 0.9704 and the “Seedling fresh weight (Fig3C), relative to mock” value (mik2-1, 10 μM, replicate 3) was 1.224. For the same sequence, the “Seedling fresh weight (Fig3C), relative to mock” value (mik2-1, 10 μM, replicate 4) was 0.9062, the “Seedling fresh weight (Fig3C), relative to mock” value (mik2-1, 10 μM, replicate 5) was 0.9941 and the “Seedling fresh weight (Fig3C), relative to mock” value (mik2-1, 10 μM, replicate 6) was 0.8622. The “Seedling fresh weight (Fig3C), relative to mock” value (mik2-1, 10 μM, replicate 7) was 0.9772, the “Seedling fresh weight (Fig3C), relative to mock” value (mik2-1, 10 μM, replicate 8) was 0.9028 and the “Seedling fresh weight (Fig3C), relative to mock” value (mik2-1, 10 μM, replicate 9) was 0.94. For the same sequence, the “Seedling fresh weight (Fig3C), relative to mock” value (mik2-1, 10 μM, replicate 10) was 1.021, the “Seedling fresh weight (Fig3C), relative to mock” value (mik2-1, 10 μM, replicate 11) was 0.9062 and the “Seedling fresh weight (Fig3C), relative to mock” value (mik2-1, 10 μM, replicate 12) was 0.9298.
PVRSSRSPRSPSF [SCOOP2] was tested, and the “Seedling fresh weight (Fig3C), relative to mock” value (Col-0, 1 μM, replicate 1) was 1.166, the “Seedling fresh weight (Fig3C), relative to mock” value (Col-0, 1 μM, replicate 2) was 0.8827 and the “Seedling fresh weight (Fig3C), relative to mock” value (Col-0, 1 μM, replicate 3) was 1.02. The “Seedling fresh weight (Fig3C), relative to mock” value (Col-0, 1 μM, replicate 4) was 1.184, the “Seedling fresh weight (Fig3C), relative to mock” value (Col-0, 1 μM, replicate 5) was 0.971 and the “Seedling fresh weight (Fig3C), relative to mock” value (Col-0, 1 μM, replicate 6) was 0.6909. The “Seedling fresh weight (Fig3C), relative to mock” value (Col-0, 1 μM, replicate 7) was 0.9497, the “Seedling fresh weight (Fig3C), relative to mock” value (Col-0, 1 μM, replicate 8) was 0.9771 and the “Seedling fresh weight (Fig3C), relative to mock” value (Col-0, 1 μM, replicate 9) was 0.9071. For the same sequence, the “Seedling fresh weight (Fig3C), relative to mock” value (Col-0, 1 μM, replicate 10) was 0.9253, the “Seedling fresh weight (Fig3C), relative to mock” value (Col-0, 1 μM, replicate 11) was 0.8736 and the “Seedling fresh weight (Fig3C), relative to mock” value (Col-0, 1 μM, replicate 12) was 0.9892. The “Seedling fresh weight (Fig3C), relative to mock” value (Col-0, 10 μM, replicate 1) was 0.6187, the “Seedling fresh weight (Fig3C), relative to mock” value (Col-0, 10 μM, replicate 2) was 0.9067 and the “Seedling fresh weight (Fig3C), relative to mock” value (Col-0, 10 μM, replicate 3) was 0.8218. For the same sequence, the “Seedling fresh weight (Fig3C), relative to mock” value (Col-0, 10 μM, replicate 4) was 0.6399, the “Seedling fresh weight (Fig3C), relative to mock” value (Col-0, 10 μM, replicate 5) was 0.5307 and the “Seedling fresh weight (Fig3C), relative to mock” value (Col-0, 10 μM, replicate 6) was 0.5914. For the same sequence, the “Seedling fresh weight (Fig3C), relative to mock” value (Col-0, 10 μM, replicate 7) was 0.649, the “Seedling fresh weight (Fig3C), relative to mock” value (Col-0, 10 μM, replicate 8) was 0.6005 and the “Seedling fresh weight (Fig3C), relative to mock” value (Col-0, 10 μM, replicate 9) was 0.5337. For the same sequence, the “Seedling fresh weight (Fig3C), relative to mock” value (Col-0, 10 μM, replicate 10) was 0.555, the “Seedling fresh weight (Fig3C), relative to mock” value (Col-0, 10 μM, replicate 11) was 0.7005 and the “Seedling fresh weight (Fig3C), relative to mock” value (Col-0, 10 μM, replicate 12) was 0.6793. For the same sequence, the “Seedling fresh weight (Fig3C), relative to mock” value (mik2-1, 1 μM, replicate 1) was 0.8038, the “Seedling fresh weight (Fig3C), relative to mock” value (mik2-1, 1 μM, replicate 2) was 0.7937 and the “Seedling fresh weight (Fig3C), relative to mock” value (mik2-1, 1 μM, replicate 3) was 1.093. The “Seedling fresh weight (Fig3C), relative to mock” value (mik2-1, 1 μM, replicate 4) was 1.0157, the “Seedling fresh weight (Fig3C), relative to mock” value (mik2-1, 1 μM, replicate 5) was 1.096 and the “Seedling fresh weight (Fig3C), relative to mock” value (mik2-1, 1 μM, replicate 6) was 0.8812. The “Seedling fresh weight (Fig3C), relative to mock” value (mik2-1, 1 μM, replicate 7) was 0.972, the “Seedling fresh weight (Fig3C), relative to mock” value (mik2-1, 1 μM, replicate 8) was 0.898 and the “Seedling fresh weight (Fig3C), relative to mock” value (mik2-1, 1 μM, replicate 9) was 1.0157. The “Seedling fresh weight (Fig3C), relative to mock” value (mik2-1, 1 μM, replicate 10) was 1.002, the “Seedling fresh weight (Fig3C), relative to mock” value (mik2-1, 1 μM, replicate 11) was 1.083 and the “Seedling fresh weight (Fig3C), relative to mock” value (mik2-1, 1 μM, replicate 12) was 1.063. The “Seedling fresh weight (Fig3C), relative to mock” value (mik2-1, 10 μM, replicate 1) was 1.068, the “Seedling fresh weight (Fig3C), relative to mock” value (mik2-1, 10 μM, replicate 2) was 1.011 and the “Seedling fresh weight (Fig3C), relative to mock” value (mik2-1, 10 μM, replicate 3) was 0.7743. For the same sequence, the “Seedling fresh weight (Fig3C), relative to mock” value (mik2-1, 10 μM, replicate 4) was 0.9434, the “Seedling fresh weight (Fig3C), relative to mock” value (mik2-1, 10 μM, replicate 5) was 0.8859 and the “Seedling fresh weight (Fig3C), relative to mock” value (mik2-1, 10 μM, replicate 6) was 0.8014. For the same sequence, the “Seedling fresh weight (Fig3C), relative to mock” value (mik2-1, 10 μM, replicate 7) was 1.0279, the “Seedling fresh weight (Fig3C), relative to mock” value (mik2-1, 10 μM, replicate 8) was 1.092 and the “Seedling fresh weight (Fig3C), relative to mock” value (mik2-1, 10 μM, replicate 9) was 1.001. The “Seedling fresh weight (Fig3C), relative to mock” value (mik2-1, 10 μM, replicate 10) was 0.9772, the “Seedling fresh weight (Fig3C), relative to mock” value (mik2-1, 10 μM, replicate 11) was 1.058 and the “Seedling fresh weight (Fig3C), relative to mock” value (mik2-1, 10 μM, replicate 12) was 1.106.
